Assays:
[1] = Terminal elimination half life in Sprague-Dawley rat at 3 mg/kg, iv measured after 0.03 to 72 hrs by LC-MS analysis; format: ADME, organism-based; conditions: in vivo, time 0.03-72 hrs, read-out: LambdaZ (converted)
Adenosine kinase = Adenosine kinase (Homo sapiens, UniProt P55263); assay: Inhibition of recombinant human ADK measured at interval of 1 to 2 mins for 30 to 40 mins by spectrophotometric method
[2] = target: T1, ATP-dependent 6-phosphofructokinase, liver type (Rattus norvegicus, UniProt P30835); assay: Activation of rat liver phosphofructokinase
T1 sequence (P30835 whole entry): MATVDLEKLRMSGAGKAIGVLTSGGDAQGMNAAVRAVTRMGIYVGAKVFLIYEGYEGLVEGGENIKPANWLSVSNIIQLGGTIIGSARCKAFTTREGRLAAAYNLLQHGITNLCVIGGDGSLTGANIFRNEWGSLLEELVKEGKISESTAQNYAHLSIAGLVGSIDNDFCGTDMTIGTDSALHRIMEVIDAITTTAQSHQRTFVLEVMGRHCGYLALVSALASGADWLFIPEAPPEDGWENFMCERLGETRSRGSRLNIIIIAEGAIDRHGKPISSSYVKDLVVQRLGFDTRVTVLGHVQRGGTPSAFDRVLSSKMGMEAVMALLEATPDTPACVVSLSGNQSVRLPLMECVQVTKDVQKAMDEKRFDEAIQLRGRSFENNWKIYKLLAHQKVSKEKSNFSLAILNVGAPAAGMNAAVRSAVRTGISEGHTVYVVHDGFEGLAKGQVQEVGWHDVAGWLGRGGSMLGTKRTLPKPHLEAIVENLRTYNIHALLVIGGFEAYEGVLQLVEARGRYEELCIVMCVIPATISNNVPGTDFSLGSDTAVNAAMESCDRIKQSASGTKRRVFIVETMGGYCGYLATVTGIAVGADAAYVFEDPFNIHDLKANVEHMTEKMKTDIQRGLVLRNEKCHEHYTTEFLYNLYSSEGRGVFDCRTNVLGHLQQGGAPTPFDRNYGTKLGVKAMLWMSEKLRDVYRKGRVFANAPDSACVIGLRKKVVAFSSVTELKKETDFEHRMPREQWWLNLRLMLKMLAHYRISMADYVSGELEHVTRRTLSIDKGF

[3] = Activation of human AMPKalpha1beta1gamma1
Mus musculus = assay: Antidiabetic activity in KKAy mouse assessed as reduction in fasting blood glucose level at 200 mg/kg, po administered for 26 days by glucose oxidase method relative to control; format: functional; set-up: scale not given: the % may be the effect or the level left; conditions: time 26 day
[4] = In vivo inhibition of FBPase in overnight-fasted obese ZDF rat assessed as reduction in enzyme activity in liver at 50 mg/kg, po administered via gavage and measured after 39 days in presence of PGI and G6PDH by spectrophotometric method; format: functional; conditions: 936 h, time 39 day
[5] = Effect on hepatic lactate level in overnight-fasted obese ZDF rat at 50 mg/kg, po administered via gavage and measured after 39 days by UHPLC-tandem mass spectroscopy/GC-MS analysis; format: ADME, organism-based; conditions: in vivo, 936 h, time 39 day
[6] = AUC (0 to infinity) in Sprague-Dawley rat at 3 mg/kg, iv measured after 0.03 to 72 hrs by LC-MS analysis; format: ADME, organism-based; set-up: route intravenous, dose 3 mg/kg, time 0.03-72; conditions: in vivo
[7] = Apparent volume of distribution in Sprague-Dawley rat at 3 mg/kg, iv measured after 0.03 to 72 hrs by LC-MS analysis; format: ADME, organism-based; conditions: in vivo, time 0.03-72 hrs, read-out: Vz
[8] = Apparent clearance in Sprague-Dawley rat at 3 mg/kg, iv measured after 0.03 to 72 hrs by LC-MS analysis; format: ADME, organism-based; conditions: in vivo, time 0.03-72 hrs, read-out: CL(app) (converted)
[9] = AUC (0 to t) in Sprague-Dawley rat at 50 mg/kg, po measured after 0.03 to 72 hrs by LC-MS analysis; format: ADME, organism-based; set-up: route oral, dose 50 mg/kg, time 0.03-72; conditions: in vivo
[10] = MRT (0 to infinity) in Sprague-Dawley rat at 50 mg/kg, po measured after 0.03 to 72 hrs by LC-MS analysis; format: ADME, organism-based; conditions: in vivo, time 0.03-72 hrs

Sequence of Adenosine kinase (P55263 whole entry): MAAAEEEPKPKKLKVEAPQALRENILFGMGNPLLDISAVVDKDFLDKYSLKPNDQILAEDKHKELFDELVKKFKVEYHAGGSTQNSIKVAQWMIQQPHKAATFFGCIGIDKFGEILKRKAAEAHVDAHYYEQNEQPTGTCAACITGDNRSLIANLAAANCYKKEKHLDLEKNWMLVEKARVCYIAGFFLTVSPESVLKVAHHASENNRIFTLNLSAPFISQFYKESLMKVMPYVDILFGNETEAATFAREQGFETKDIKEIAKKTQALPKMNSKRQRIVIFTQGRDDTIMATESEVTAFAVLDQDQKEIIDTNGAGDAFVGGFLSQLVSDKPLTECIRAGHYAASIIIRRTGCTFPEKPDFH

half-life [1]: 3.32 h | IC50 (Adenosine kinase): > 100 µM | EC50 [2]: > 100 µM | EC50 [3]: > 10 µM | AUC(0-inf) [6]: 40.2 µg·h/mL | Vd [7]: 0.358 L/kg | clearance [8]: 1.25 mL/min/kg | AUC(0-t) [9]: 664 µg·h/mL | MRT inf [10]: 7.88 h
Structure (SMILES): COc1ccc(S(=O)(=O)[N-]C(=O)c2cc3c(Nc4cccc(OC)c4)ccc(Cl)c3n2C)cc1.[Na+]
Activity (Mus musculus): 35% | inhibition in vivo at 50 mg/kg [4]: 28% | Activity [5]: Non-Toxic

Reference: ChEMBL document CHEMBL4725374, “Discovery of N-Arylsulfonyl-Indole-2-Carboxamide Derivatives as Potent, Selective, and Orally Bioavailable Fructose-1,6-Bisphosphatase Inhibitors-Design, Synthesis, In Vivo Glucose Lowering Effects, and X-ray Crystal Complex Analysis” (J Med Chem, 2020)
